Five molecules from patent US12637481B2, “Boronic acid derivatives and therapeutic uses thereof” (QPEX BIOPHARMA, INC., priority 2020, dated 2026) can be followed below.

Read-outs that look alike come from different tables or passages of the source.

The nature of data set [1]: Microsomal activation of prodrug, rat liver microsomes. It is filed as in vitro ADME. The conditions noted are these: 1 μM in rat liver microsomes, room temperature, assayed for active drug by LC/MS/MS. The procedure: (§1) Serum activation: Compounds 1, 2, or II were solubilized in water and added to rat, dog, monkey, and human serum at a concentration of 50 μg/mL. The samples were incubated at room temperature for 1 hour then assayed for “active” drug content using an LC/MS/MS assay. Microsomal activation: Compounds 1, 2, or II were solubilized in water and added to rat, dog, monkey, and human liver microsomes at a concentration of 1 μM. The samples were incubated at room temperature for 1 hour then assayed for “active” drug content using an LC/MS/MS assay.
In general terms: Liver microsomes are vesicles of endoplasmic reticulum, rich in cytochrome P450 enzymes.

The nature of another data set: Permeability/transport. It is filed as in vitro ADME.
Data set [2] in a line: Serum activation of prodrug, dog serum. It is filed as in vitro ADME. The conditions noted are these: 50 μg/mL in dog serum, room temperature, 1 hour, assayed for active drug by LC/MS/MS. As to the method:
as §1

Data set [3] is described as follows: Microsomal activation of prodrug, dog liver microsomes. It is filed as in vitro ADME. The conditions noted are these: 1 μM in dog liver microsomes, room temperature, assayed for active drug by LC/MS/MS. The procedure: as §1
Data set [4] is described as follows: Serum activation of prodrug, rat serum. It is filed as in vitro ADME. The conditions noted are these: 50 μg/mL in rat serum, room temperature, 1 hour, assayed for active drug by LC/MS/MS. The procedure: as §1
The nature of data set [5]: Microsomal activation of prodrug, human liver microsomes. In kind it is in vitro ADME. The conditions noted are these: for half-life at 1 μM: 1 μM in human liver microsomes, room temperature, assayed for active drug by LC/MS/MS. As to the method: as §1
The nature of data set [6]: Serum activation of prodrug, human serum. It is filed as in vitro ADME. The conditions noted are these: 50 μg/mL in human serum, room temperature, 1 hour, assayed for active drug by LC/MS/MS. As to the method: as §1
Another data set in a line: Crystallinity. In kind it is physicochemical.
A short description of data set [7]: Serum activation of prodrug, monkey serum. In kind it is in vitro ADME. The conditions noted are these: 50 μg/mL in monkey serum, room temperature, 1 hour, assayed for active drug by LC/MS/MS. As to the method:
as §1

Data set [8] is described as follows: Microsomal activation of prodrug, monkey liver microsomes. The conditions noted are these: 1 μM in monkey liver microsomes, room temperature, assayed for active drug by LC/MS/MS; read-out: Half-life monkey micorsomes. It is filed as in vitro ADME. As to the method: as §1
Data set [9] is described as follows: Dynamic vapor sorption (DVS), hygroscopicity. The conditions noted are these: 25° C., 5 to 95% RH. In kind it is physicochemical. As to the method:
DVS analysis was carried out using a TA Instruments Q5000 Dynamic Vapor Sorption analyzer. The instrument was calibrated with standard weights and a sodium bromide standard for humidity. Approximately 20 mg of sample was loaded into a metal-coated quartz pan for analysis. The sample was analyzed at 25° C. with a maximum equilibration time of one hour in 10% relative humidity (RH) steps from 5 to 95% RH (adsorption cycle) and from 95 to 5% RH (desorption cycle). The movement from one step to the next occurred either after satisfying the equilibrium criterion of 0.01% weight change or, if the equilibrium criterion was not met, after one hour. The percent weight change values were calculated using Microsoft Excel®. The temperature for the DVS analysis can impact the outcome of the results.

For `CCCC(=O)OCOC(=O)c1c(F)ccc2c1OB(O)[C@@H]1C[C@H]21` [Compound 1], the half-life (in general, how long it takes for the measured level to halve) at 1 μM in data set [1] was 3 ± 1 min; in data set [3], 11 ± 1 min; in data set [5], 28 ± 2 min; in data set [8], 2 ± 1 min. The Permeability/transport result in the data set “Permeability/transport” was “High”. Besides, the half-life at 50 μg/mL in data set [2], in data set [4], in data set [6] and in data set [7] was greater than 60 min in each case. Also, in data set [5] (compared with Compound 2 or Compound II), the “human microsomal activation, compared in words” value is on record as “significantly slower”. The Crystallinity result in the data set “Crystallinity” was “Yes”.
Regarding `CC(=O)OCOC(=O)c1c(F)ccc2c1OB(O)[C@@H]1C[C@H]21` [Compound 2], the results for the half-life at 1 μM in data set [1], in data set [5] and in [8] were 3 ± 2 min, 8 ± 1 min and 3 ± 2 min, respectively. The Permeability/transport result in “Permeability/transport” was “High”. Moreover, the half-life at 50 μg/mL in data set [2], in data set [4], in [6] and in [7] was greater than 60 min in each case. Besides, the Crystallinity entry was “not crystalline” in the data set “Crystallinity” and “No” in the data set “Crystallinity” (listed as drawing 11).
`CC(C)C(=O)OCOC(=O)c1c(F)ccc2c1OB(O)[C@@H]1C[C@H]21` [Compound II, (isobutyryloxy)methyl (1aR,7bS)-5-fluoro-2-hydroxy-1,1a,2,7b-tetrahydrobenzo[e]cyclopropa[c][1,2]oxaborinine-4-carboxylate]: the half-life at 1 μM in [1] is 5 ± 3 min; in data set [3], 23 ± 2 min; in data set [5], 9 ± 5 min; in data set [8] it was 2 ± 1 min. Also, the Permeability/transport entry in “Permeability/transport” is “High”. Besides, the half-life at 50 μg/mL in data set [2], in [4], in data set [6] and in [7] was greater than 60 min each time. Moreover, the “Human microsome activation t1/2” value in data set [5] (human liver microsomes, as repeated in Table 2) was 9 + 5 min. In addition, the Crystallinity entry in “Crystallinity” is “Yes”.
Regarding `CC(C)C(=O)OCOC(=O)c1c(F)ccc2c1O[B-](O)(O)[C@@H]1C[C@H]21.[Na+]` [crystalline Form A of Compound II′], the “Hygroscopicity by dynamic vapor sorption (DVS)” value in [9] is on record as “slightly hygroscopic”.
The same measure, in the same setting: next, `CC(C)C(=O)OCOC(=O)c1c(F)ccc2c1O[B-](O)(O)[C@@H]1C[C@H]21.[Na+]` [crystalline Form B of Compound II′]: “moderately hygroscopic”.
